Experimental data reported in publication PMC13304593 (Pharmaceuticals, 2026).

Experiment: Pharmacokinetics of DTX in mice after oral administration
Format: in vivo, Kunming mice
Details: lung, oral 20 mg/kg DTX or equivalent
Description: Briefly, the samples were precipitated with three volumes of acetonitrile and analyzed using an LC-MS/MS system comprising a Waters ACQUITY ultra-high-performance liquid chromatography (UPLC) system (Waters Corporation, Milford, MA, USA) and an API 5500 mass spectrometer (AB Sciex LLC, Framingham, MA, USA) equipped with an electrospray ionization source. Separation was performed on an ACQUITY BEH C18 column (2.1 × 100 mm, 1.7 μm; Waters) using a gradient elution.
One hundred specific-pathogen-free (SPF) male Kunming mice (body weight: 22–24 g) were purchased from the Beijing Vital River Laboratory Animal Technology Co., Ltd. (Beijing, China). Mice were housed in an air-conditioned room maintained at 22–24 °C with a 12 h light/12 h dark cycle. Prior to the experiment, mice were fasted for 12 h with free access to water.
Mice were randomly divided by body weight into two main groups, each subdivided into 10 subgroups. […] At each time point post-administration (0.083, 0.25, 0.5, 1, 2, 3, 4, 6, 8, and 12 h), one subgroup of mice from each main group was anesthetized with Zoletil® 50. Systemic blood was collected and heparinized to prepare the plasma. Next, the animals were immediately euthanized by cervical dislocation under deep anesthesia prior to liver and lung excision. […]
Quantitative data are expressed as the mean ± SD.

In the case of CC(=O)O[C@@]12CO[C@@H]1C[C@H](O)[C@@]1(C)C(=O)[C@H](O)C3=C(C)[C@@H](OC(=O)[C@H](O)[C@@H](NC(=O)OC(C)(C)C)c4ccccc4)C[C@@](O)([C@@H](OC(=O)c4ccccc4)[C@H]21)C3(C)C [DTX, docetaxel], the t1/2 is reported as 2.6 h.
